In patent publication US9469615B2, “Quinoxalines and AZA-quinoxalines as CRTH2 receptor modulators” (Merck Sharp & Dohme Corp., priority 2010, dated 2016):

Molecular target: T1, hCRTH2 (Homo sapiens, UniProt Q9Y5Y4)
T1 construct: expressed in transfected cells; host or cells: HEK (human embryonic kidney) cells expressing hCRTH2; membrane preparation
T1 sequence (Q9Y5Y4 1-395): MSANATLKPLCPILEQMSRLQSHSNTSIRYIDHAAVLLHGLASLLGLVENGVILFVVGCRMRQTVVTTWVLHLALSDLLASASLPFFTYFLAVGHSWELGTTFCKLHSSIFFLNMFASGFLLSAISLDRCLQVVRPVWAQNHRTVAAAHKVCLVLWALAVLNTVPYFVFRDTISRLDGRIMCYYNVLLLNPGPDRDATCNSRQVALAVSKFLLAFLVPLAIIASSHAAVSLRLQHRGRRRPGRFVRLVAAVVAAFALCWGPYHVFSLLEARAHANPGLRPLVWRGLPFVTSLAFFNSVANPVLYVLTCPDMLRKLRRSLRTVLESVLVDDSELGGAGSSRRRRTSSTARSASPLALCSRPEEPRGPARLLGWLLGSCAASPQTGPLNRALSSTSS
Test: Radioligand binding assay ([3H]PGD2 competition, HEK-hCRTH2 membranes)
Settings: [3H]PGD2 binding, rated A-E (Table A)
How it was run: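 Using membranes of an HEK line stably carrying hCRTH2, ligands were tested against [3H]PGD2 (3.0 nM) in pH 7.4 Tris buffer containing 2 mM MnCl2 and 1 mM EDTA. After one hour at room temperature, filters were washed cold and counted.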

First: CC(CCCc1nc2cc(C(=O)N[C@@H](c3ccccc3)C(F)(F)F)ccc2nc1-c1ccc(C(F)(F)F)cc1)C(=O)O (stereo partly drawn) [18H, alpha-methyl-3-[4-(trifluoromethyl)phenyl]-7-[[(2,2,2-trifluoro-1(S)-phenylethyl)amino]carbonyl]-2-quinoxalinepentanoic acid]
Second: O=C(O)Cc1cccc(CCc2nc3cc(C(=O)N[C@@H](c4ccccc4)C(F)(F)F)ccc3nc2-c2ccc(Cl)cc2)c1 [19J, 3-[2-[3-(4-chlorophenyl)-7-[[(2,2,2-trifluoro-1(S)-phenylethyl)amino]carbonyl]-2-quinoxalinyl]ethyl]benzeneacetic acid]
The Ki of the first is lower: 2.1 to 20 nM for the first, 20.1 to 200 nM for the second.

`N#Cc1ccc(CNC(=O)c2ccc3nc(-c4ccc(Cl)cc4)c(CCc4cccc(CC(=O)O)c4)nc3c2)cc1` [19F, 3-[2-[3-(4-chlorophenyl)-7-[[[(4-cyanophenyl)methyl]amino]carbonyl]-2-quinoxalinyl]ethyl] benzeneacetic acid] and `O=C(O)Cc1cccc(CCc2nc3cc(C(=O)NCc4cccc(Cl)c4)ccc3nc2-c2ccc(Cl)cc2)c1` [19i, 3-[2-[3-(4-chlorophenyl)-7-[[[(3-chlorophenyl)methyl]amino]carbonyl]-2-quinoxalinyl]ethyl] benzeneacetic acid] fall in the same range of Ki: 2.1 to 20 nM for the first, 2.1 to 20 nM for the second.

`C[C@@H](NC(=O)c1ccc2nc(-c3ccc(Cl)cc3)c(CCc3cccc(CC(=O)O)c3)nc2c1)c1ccc(F)cc1` [19G, 3-[2-[3-(4-chlorophenyl)-7-[[[1(R)-(4-fluorophenyl)ethyl]amino]carbonyl]-2-quinaxalinyl]ethyl] benzeneacetic acid] and `C[C@H](NC(=O)c1ccc2nc(-c3ccc(Cl)cc3)c(CCc3cccc(CC(=O)O)c3)nc2c1)c1ccc(F)cc1` [19H, 3-[2-[3-(4-chlorophenyl)-7-[[[1(S)-(4-fluorophenyl)ethyl]amino]carbonyl]-2-quinoxalinyl]ethyl] benzeneacetic acid] fall in the same range of Ki: 2.1 to 20 nM for the first, 2.1 to 20 nM for the second.

`O=C(O)Cc1cccc(CCc2nc3cc(C(=O)N4CC(c5ccccc5)C4)ccc3nc2-c2ccc(Cl)cc2)c1` [19K, 3-[2-[3-(4-chlorophenyl)-7-[(3-phenyl-1-azetidinyl)carbonyl]-2-quinoxalinyl]ethyl] benzeneacetic acid] and `O=C(O)CCCCc1nc2cc(C(=O)N3CCC(c4ccccc4)C3)ccc2nc1-c1cccc(Cl)c1` (stereo not drawn) [26F, 3-(3-chlorophenyl)-7-[(3-phenyl-1-pyrrolidinyl)carbonyl]-2-quinoxalinepentanoic acid] fall in the same range of Ki: 2.1 to 20 nM for the first, 2.1 to 20 nM for the second.

`C[C@@H](c1ccccc1)N(C)C(=O)c1ccc2nc(-c3ccc(F)cc3)c(CCCCC(=O)O)nc2c1` [21C, -(4-fluorophenyl)-7-[[methyl(1(S)-phenylethyl)amino]carbonyl]-2-quinoxalinepentanoic acid] and `O=C(O)CCCCc1nc2cc(C(=O)N3CC[C@@H](c4ccccc4)C3)c(F)cc2nc1-c1ccc(F)cc1` [24H, 6-fluoro-3-(4-fluorophenyl)-7-[(3(S)-phenyl-1-pyrrolidinyl)carbonyl]-2-quinoxalinepentanoic acid] fall in the same range of Ki: 2.1 to 20 nM for the first, 2.1 to 20 nM for the second.

First: O=C(NCc1cccc(Cl)c1)c1ccc2nc(-c3ccccc3)c(CCCCc3nnn[nH]3)nc2c1 [22D, N-[(3-chlorophenyl)methyl]-2-phenyl-3-[4-(1H-tetrazol-5-yl)butyl]-6-quinoxalinecarboxamide]
Second: O=C(O)CCCCc1nc2cc(C(=O)N3CCC(c4ccccc4)CC3)ccc2nc1-c1cccc(Cl)c1 [26J, 3-(3-chlorophenyl)-7-[(4-phenyl-1-piperidinyl)carbonyl]-2-quinoxalinepentanoic acid]
The Ki of the first is higher: 20.1 to 200 nM for the first, 0.1 to 2 nM for the second.

`O=C(O)CCCCc1nc2cc(C(=O)N3CC[C@@H](c4ccccc4)C3)c(F)cc2nc1-c1ccccc1` [24i, 6-fluoro-3-phenyl-7-[(3(S)-phenyl-1-pyrrolidinyl)carbonyl]-2-quinoxalinepentanoic acid] and `O=C(O)CCCCc1nc2cc(C(=O)N3CCC(c4ccccc4)C3)ccc2nc1-c1cccc(F)c1` (stereo not drawn) [26E, 3-(3-fluorophenyl)-7-[(3-phenyl-1-pyrrolidinyl)carbonyl]-2-quinoxalinepentanoic acid] fall in the same range of Ki: 2.1 to 20 nM for the first, 2.1 to 20 nM for the second.

Compared with `O=C(O)CCCCc1nc2cc(C(=O)N3CCC(c4ccccc4)CC3)ccc2nc1-c1ccc(C(F)(F)F)cc1Cl` [26AA, 3-[2-chloro-4-(trifluoromethyl)phenyl]-7-[(4-phenyl-1-piperidinyl)carbonyl]-2-quinoxalinepentanoic acid], `O=C(O)CCCCc1nc2cc(C(=O)N3CCC(c4ccccc4)CC3)ccc2nc1-c1ccccc1Cl` [26L, 3-(2-chlorophenyl)-7-[(4-phenyl-1-piperidinyl)carbonyl]-2-quinoxalinepentanoic acid] is higher in Ki: 0.1 to 2 nM for the first, 2.1 to 20 nM for the second. The first binds more tightly here.

Compared with `O=C(O)CCCCc1nc2cc(C(=O)N3CCC(c4ccccc4)CC3)ccc2nc1-c1ccc(Br)cc1` [26AB, 3-(4-bromophenyl)-7-[(4-phenyl-1-piperidinyl)carbonyl]-2-quinoxalinepentanoic acid], `N#Cc1ccc(-c2nc3ccc(C(=O)N4CCC(c5ccccc5)CC4)cc3nc2CCCCC(=O)O)cc1` [26P, 3-(4-cyanophenyl)-7-[(4-phenyl-1-piperidinyl)carbonyl]-2-quinoxalinepentanoic acid] is higher in Ki: 0.1 to 2 nM for the first, 2.1 to 20 nM for the second.

First: O=C(O)CCCCc1nc2cc(C(=O)N3CCC(c4ccccc4)C3)ccc2nc1-c1cc(Cl)cc(Cl)c1 (stereo not drawn) [26G, 3-(3,5-dichlorophenyl)-7-[(3-phenyl-1-pyrrolidinyl)carbonyl]-2-quinoxalinepentanoic acid]
Second: O=C(O)CCCCc1nc2cc(C(=O)N3CCC(c4ccccc4)CC3)ccc2nc1-c1cncc(Cl)c1 [26R, 3-(5-chloro-3-pyridinyl)-7-[(4-phenyl-1-piperidinyl)carbonyl]-2-quinoxalinepentanoic acid]
The Ki of the first is lower: 2.1 to 20 nM for the first, 20.1 to 200 nM for the second. The first binds more tightly here.

`O=C(O)CCCCc1nc2cc(C(=O)N3CCC(c4ccccc4)C3)ccc2nc1-c1ccc(F)cc1F` (stereo not drawn) [26H, 3-(2,4-difluorophenyl)-7-[(3-phenyl-1-pyrrolidinyl)carbonyl]-2-quinoxalinepentanoic acid] and `O=C(O)CCCCc1nc2cc(C(=O)N3CCC(c4ccccc4)CC3)ccc2nc1-c1ccc(C(F)(F)F)nc1` [26K, 7-[(4-phenyl-1-piperidinyl)carbonyl]-3-[6-(trifluoromethyl)-3-pyridinyl]-2-quinoxalinepentanoic acid] fall in the same range of Ki: 2.1 to 20 nM for the first, 2.1 to 20 nM for the second.

Compared with `O=C(O)CCCCc1nc2cc(C(=O)N3CCC(c4ccccc4)CC3)ccc2nc1-c1cccnc1` [26M, 7-[(4-phenyl-1-piperidinyl)carbonyl]-3-(3-pyridinyl)-2-quinoxalinepentanoic acid], `O=C(O)CCCCc1nc2cc(C(=O)N3CCC(c4ccccc4)CC3)ccc2nc1-c1cncnc1` [26Q, 7-[(4-phenyl-1-piperidinyl)carbonyl]-3-(5-pyrimidinyl)-2-quinoxalinepentanoic acid] is higher in Ki: 2.1 to 20 nM for the first, 20.1 to 200 nM for the second. The first binds more tightly here.

`O=C(O)CCCCc1nc2cc(C(=O)N3CCC(c4ccccc4)CC3)ccc2nc1-c1ccc(OC(F)(F)F)cc1` [26N, 7-[(4-phenyl-1-piperidinyl)carbonyl]-3-[4-(trifluoromethoxy)phenyl]-2-quinoxalinepentanoic acid] and `O=C(O)CCCCc1nc2cc(C(=O)N3CCC(c4ccccc4)CC3)ccc2nc1-c1ccsc1` [26S, 7-[(4-phenyl-1-piperidinyl)carbonyl]-3-(3-thienyl)-2-quinoxalinepentanoic acid] fall in the same range of Ki: 0.1 to 2 nM for the first, 0.1 to 2 nM for the second.

Same assay, conditions: [3H]PGD2 binding, values in text

Compound `O=C(O)CCCCc1nc2cc(C(=O)N3CCC(c4ccccc4)CC3)ccc2nc1-c1cncnc1` [26Q, 7-[(4-phenyl-1-piperidinyl)carbonyl]-3-(5-pyrimidinyl)-2-quinoxalinepentanoic acid] has a Ki of 96.7 nM.
